In ChEMBL document CHEMBL1201862, “PubChem BioAssay data set” (2004):
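Test compounds were applied to cells in 96-well plates for 48 hours at 5 doses. At the GI50, growth is halved.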 Active and inactive are the calls of the source. No stated cut-off is given here; in the data, active = GI50 up to about 1.1 µM and inactive = higher.

Legend:
Experiment in all cases: inhibition of tumour cell growth, NCI panel, 48 h
SK-MEL-5 = test system: SK-MEL-5
HT-29 = test system: HT-29
SW-620 = test system: SW-620
EKVX = test system: EKVX
NCI/ADR-RES = test system: NCI/ADR-RES
NCI-H226 = test system: NCI-H226
DU-145 = test system: DU-145
COLO 205 = test system: COLO 205
MDA-MB-231 = test system: MDA-MB-231
BT-549 = test system: BT-549
SN12C = test system: SN12C
CAKI-1 = test system: CAKI-1
NCI-H522 = test system: NCI-H522
HCC 2998 = test system: HCC 2998
OVCAR-3 = test system: OVCAR-3
PC-3 = test system: PC-3
ACHN = test system: ACHN
MOLT-4 = test system: MOLT-4
UACC-257 = test system: UACC-257

Measured: GI50

COc1c2c(cc3c1OCO3)C13C=CC(OC)CC1N(CC3)C2.[O-][Cl+3]([O-])([O-])O (stereo unspecified)
inactive: SK-MEL-5 29 µM | HT-29 71 µM | SW-620 > 100 µM | EKVX > 100 µM | NCI/ADR-RES > 100 µM | NCI-H226 > 100 µM | DU-145 > 100 µM | COLO 205 35.6 µM | MDA-MB-231 > 100 µM | BT-549 > 100 µM | SN12C > 100 µM | CAKI-1 > 100 µM | NCI-H522 > 100 µM | HCC 2998 90.8 µM | OVCAR-3 > 100 µM | PC-3 > 100 µM | ACHN > 100 µM | MOLT-4 36.4 µM | UACC-257 > 100 µM

CN(C)Cc1cc(/C=C/C(=O)c2ccc(Cl)c(Cl)c2)cc(CN(C)C)c1O
inactive: SK-MEL-5 11.7 µM | HT-29 10.8 µM | SW-620 12.9 µM | EKVX 15.6 µM | NCI/ADR-RES 19 µM | DU-145 13.9 µM | COLO 205 11.2 µM | MDA-MB-231 7.05 µM | BT-549 7.74 µM | SN12C 13.5 µM | CAKI-1 9.02 µM | HCC 2998 6.35 µM | OVCAR-3 10.3 µM | PC-3 12.4 µM | ACHN 12.8 µM | MOLT-4 10.1 µM | UACC-257 12.1 µM

O=C(/N=N/c1ccc(Br)cc1)NNc1ccc(Br)cc1
inactive: SK-MEL-5 13.9 µM | HT-29 17.4 µM | NCI/ADR-RES 20 µM | NCI-H226 20.5 µM | DU-145 40.8 µM | COLO 205 23 µM | MDA-MB-231 21.2 µM | BT-549 > 10 µM | CAKI-1 23.7 µM | NCI-H522 16.2 µM | HCC 2998 21.5 µM | OVCAR-3 16.8 µM | PC-3 15.5 µM | MOLT-4 11.8 µM

CC(=O)Oc1ccc(-c2cc3ccccc3oc2=O)cc1
inactive: HT-29 > 100 µM | SW-620 > 100 µM | EKVX 61.1 µM | NCI/ADR-RES > 100 µM | NCI-H226 > 100 µM | DU-145 > 100 µM | COLO 205 > 100 µM | MDA-MB-231 > 100 µM | BT-549 > 100 µM | SN12C > 100 µM | NCI-H522 21.8 µM | HCC 2998 > 100 µM | OVCAR-3 6.27 µM | PC-3 > 100 µM | ACHN > 100 µM | MOLT-4 45.6 µM | UACC-257 > 100 µM

CC(C)(C)C(=O)N1CCN(C=O)C1=S
inactive: HT-29 > 100 µM | SW-620 44.9 µM | EKVX > 100 µM | NCI/ADR-RES > 100 µM | NCI-H226 > 100 µM | DU-145 33.5 µM | COLO 205 > 100 µM | MDA-MB-231 > 100 µM | BT-549 46.2 µM | SN12C 36.8 µM | CAKI-1 34.6 µM | NCI-H522 26.8 µM | HCC 2998 64.9 µM | OVCAR-3 38.2 µM | PC-3 > 100 µM | ACHN 57.9 µM | MOLT-4 61.5 µM | UACC-257 62.7 µM

O=c1c(-c2ccccc2)c(SCCCN2CCN(c3cccc(Cl)c3)CC2)n(-c2ccccc2)c(=S)n1-c1ccccc1
inactive: SK-MEL-5 > 100 µM | HT-29 80.9 µM | SW-620 > 100 µM | EKVX > 100 µM | NCI/ADR-RES > 100 µM | NCI-H226 > 100 µM | DU-145 > 100 µM | COLO 205 > 100 µM | MDA-MB-231 > 100 µM | BT-549 > 100 µM | CAKI-1 25.6 µM | NCI-H522 > 100 µM | HCC 2998 > 100 µM | OVCAR-3 > 100 µM | PC-3 > 100 µM | ACHN > 100 µM | MOLT-4 > 100 µM | UACC-257 > 100 µM

c1ccc(CN[C@]23C4C5CC6C7C5C2C7[C@@](NCc2ccccc2)(C64)N3Cc2ccccc2)cc1 (stereo partly specified)
inactive: SK-MEL-5 > 100 µM | HT-29 > 100 µM | SW-620 > 100 µM | EKVX > 100 µM | NCI/ADR-RES > 100 µM | NCI-H226 > 100 µM | DU-145 > 100 µM | COLO 205 > 100 µM | MDA-MB-231 > 100 µM | BT-549 > 100 µM | SN12C > 100 µM | CAKI-1 > 100 µM | NCI-H522 91.8 µM | OVCAR-3 > 100 µM | PC-3 > 100 µM | ACHN > 100 µM | MOLT-4 > 100 µM | UACC-257 > 100 µM

O=c1c(C(c2ccc3ccccc3c2)c2c(O)oc3cc(O)ccc3c2=O)c(O)oc2cc(O)ccc12
inactive: SK-MEL-5 > 100 µM | HT-29 > 100 µM | SW-620 > 100 µM | EKVX > 100 µM | NCI/ADR-RES > 100 µM | NCI-H226 > 100 µM | DU-145 > 100 µM | COLO 205 > 100 µM | MDA-MB-231 > 100 µM | BT-549 54.2 µM | SN12C > 100 µM | CAKI-1 > 100 µM | NCI-H522 50.8 µM | HCC 2998 > 100 µM | OVCAR-3 80 µM | PC-3 > 100 µM | MOLT-4 44.4 µM | UACC-257 > 100 µM

O=C(O)CC(Cc1ccc2c(c1)OCO2)C(=O)O (stereo unspecified)
inactive: SK-MEL-5 > 100 µM | HT-29 > 100 µM | SW-620 > 100 µM | EKVX > 100 µM | NCI/ADR-RES > 100 µM | NCI-H226 > 100 µM | DU-145 > 100 µM | COLO 205 > 100 µM | MDA-MB-231 > 100 µM | BT-549 > 100 µM | SN12C > 100 µM | NCI-H522 > 100 µM | HCC 2998 > 100 µM | OVCAR-3 > 100 µM | PC-3 > 100 µM | ACHN > 100 µM | MOLT-4 > 100 µM | UACC-257 > 100 µM

CCCNC1=Nc2ccccc2N(Cc2ccccc2)CC1
inactive: SK-MEL-5 15 µM | HT-29 19.5 µM | SW-620 23.7 µM | EKVX 30.5 µM | NCI/ADR-RES 16.1 µM | NCI-H226 26.6 µM | DU-145 33.9 µM | COLO 205 10.9 µM | MDA-MB-231 20.3 µM | BT-549 15.5 µM | SN12C 31.5 µM | CAKI-1 21.3 µM | NCI-H522 13.9 µM | OVCAR-3 32.4 µM | PC-3 19.3 µM | ACHN 23.2 µM | MOLT-4 10.9 µM | UACC-257 14.4 µM

O=c1[nH]nc(NNc2ccccc2)c2nnn(C3CCCCC3)c12
inactive: SK-MEL-5 > 100 µM | HT-29 > 100 µM | EKVX > 100 µM | NCI/ADR-RES > 100 µM | DU-145 > 100 µM | COLO 205 > 100 µM | MDA-MB-231 > 100 µM | BT-549 > 100 µM | SN12C > 100 µM | CAKI-1 > 100 µM | HCC 2998 > 100 µM | OVCAR-3 > 100 µM | PC-3 > 100 µM | ACHN > 100 µM | MOLT-4 > 100 µM | UACC-257 > 100 µM
